Reference: EPA's ToxValDB 9.5 (doi:10.2903/j.efsa.2010.1632)
Converted amounts (≈) assume the structure as drawn.

Assays:
Mus musculus = settings: chronic; duration: 78 weeks; body weight
Pimephales promelas = settings: chronic/long-term; duration: 301 days; other
Canidae = settings: oral, Dog Other, body weight
Apis mellifera = settings: acute; duration: 48 hours; dermal; mortality
Oryctolagus sp. = settings: reproduction developmental; body weight
Cyprinodon variegatus = settings: acute; duration: 96 hours; mortality
Daphnia magna = settings: chronic/long-term; duration: 21 days; reproduction
Oncorhynchus mykiss = settings: acute; duration: 96 hours; mortality
Rattus norvegicus = settings: body weight
Neomysis kadiakensis = settings: chronic/long-term; duration: 35 days; reproduction
Lycopersicon sp. = settings: not reported; seedling emergence
Bibionidae = settings: chronic/long-term; duration: 28 days; development
Folsomia candida = settings: chronic/long-term; duration: 28 days; reproduction
Aphidius rhopalosiphi = assay: LR50; higher = less toxic; settings: acute; duration: 48 hours; mortality

## CC(C)(C)c1ccc(CSc2cnn(C(C)(C)C)c(=O)c2Cl)cc1 [Pyridaben]
Mus musculus
  NOAEL: 0.81 mg/kg-day
Pimephales promelas
  NOEC: 0.00028 mg/L
Canidae; chronic, duration: 1 years
  NOAEL: 1 mg/kg-day
Canidae; subchronic, duration: 3 months
  NOAEL: 1 mg/kg-day
Apis mellifera
  LD50: > 0.024 µg/piece
Oryctolagus sp.
  NOAEL: 5 mg/kg-day
Tagia sp.; acute, duration: 14 days, mortality
  LC50: > 38 mg/kg
Tagia sp.; chronic/long-term, duration: 56 days, reproduction
  NOEC: 0.29 mg/kg
Cyprinodon variegatus
  LC50: 17 ng/mL (≈ 0.0466 µM)
Daphnia magna
  NOEC: 8.6e-05 mg/L
Oncorhynchus mykiss
  LC50: 0.73 ng/mL (≈ 0.002 µM)
Colinus virginianus; acute, oral, diet, mortality
  LC50: > 4300 mg/kg-day
Colinus virginianus; acute, oral, mortality
  LD50: > 2250 mg/kg-day
Colinus virginianus; reproduction developmental
  NOEC: 130 mg/kg-day
Rattus norvegicus; chronic
  NOEC: 2.37 mg/kg-day
Rattus norvegicus; chronic, duration: 2 years
  NOAEL: 1.1 mg/kg-day
Rattus norvegicus; reproduction developmental
  NOAEL: 4.7 mg/kg-day
Neomysis kadiakensis
  NOEC: 4.7e-05 mg/L
Anas platyrhynchos; acute, oral, unspecified, mortality
  LD50: > 2500 mg/kg-day
Anas platyrhynchos; reproductive
  NOEC: 10 mg/kg-day
Anas platyrhynchos; short-term, oral, feed, mortality
  NOEC: 659 mg/kg-day
Lycopersicon sp.
  LEL: 560 g/ha
Bibionidae
  NOEC: 0.0051 mg/L
Folsomia candida
  NOEC: 3.28 mg/kg
Aphidius rhopalosiphi
  LR50: 0.24 g/ha
